Values after ≈ are worked out from the molar mass of the structure shown. “Also recorded” adds a separate entry of the source. Read-outs that look alike come from different tables or passages of the source.
Legend:
[1] = cited from earlier work
[2] = tested on: topoisomerase I-DNA cleavable complex; conditions: cited from earlier work
human patients [3] = conditions: cited from earlier work
[4] = tested on: advanced gastrointestinal cancer; conditions: cited from earlier work
[5] = Solubility of camptothecin in various solvents; assay type: physicochemical; conditions: for solubility: read-out: Solubility, Concentration
L1210 cells = conditions: cited from earlier work
Topoisomerase I [6] = conditions: purified from calf thymus; cited from earlier work
topoisomerase II = conditions: cited from earlier work
DNA strand breaks = conditions: cited from earlier work
[7] = tested on: human patients with cancer; conditions: Phase I and Phase II human trials; cited from earlier work
mice = conditions: more toxic than SCPT; cited from earlier work
[8] = greater than carboxylate form; cited from earlier work
Topoisomerase I [9] = conditions: purified from human colon carcinoma cells; cited from earlier work
[10] = animals; cited from earlier work
[11] = Lactone form / chemical stability in formulation; assay type: physicochemical
[12] = cited from earlier work; remark: listed apart in the source
human patients [13] = conditions: cited from earlier work; remark: listed apart in the source
malignant melanoma = conditions: cited from earlier work
[14] = oral vs intravenous solution; cited from earlier work
[15] = 15 mg/m^2 × 5, 9 patients treated
[16] = 17 mg/m^2 × 5, 5 patients treated
[17] = 20 mg/m^2 × 5, 10 patients treated
[18] = 5-Day course (27 patients), 4 wks
[19] = 5-Day course (27 patients), 8 wks
[20] = 5-Day course (27 patients), 12 wks
[21] = single dose 110 mg/m^2, 2 patients treated
[22] = single dose 120 mg/m^2, 7 patients treated
[23] = single dose 180 mg/m^2, 9 patients treated
[24] = single-dose method (34 patients), 3 wks
[25] = single-dose method (34 patients), 6 wks
[26] = single-dose method (34 patients), 9 wks
[27] = single-dose method (34 patients), 12 wks
[28] = 90-360 mg/m^2 every 2 weeks, fifteen patients

Structure (SMILES): CCc1c2c(nc3ccccc13)-c1cc3c(c(=O)n1C2)COC(=O)[C@]3(O)CC [7-ethyl camptothecin]
- Water solubility ([1]; water): less than 5 micrograms per milliliter of water

Structure (SMILES): CCc1c2c(nc3ccc(O)cc13)-c1cc3c(c(=O)n1C2)COC(=O)[C@]3(O)CC [7-ethyl-10-hydroxy camptothecin]
- Water solubility ([1]; water): less than 5 micrograms per milliliter of water

Structure (SMILES): CCC1(O)C(=O)OCc2c1cc1n(c2=O)Cc2cc3cc4c(cc3nc2-1)OCO4 (stereo not drawn) [10,11-Methylenedioxy camptothecin, 10,11-methylenedioxy camptothecin]
- Water solubility ([1]; water): less than 5 micrograms per milliliter of water

Structure (SMILES): CCC1(O)C(=O)OCc2c1cc1n(c2=O)Cc2cc3cc4c(cc3nc2-1)OCCO4 (stereo not drawn) [10,11-ethylenedioxy-camptothecin, 10,11-ethylenedioxy camptothecin]
- Water solubility ([1]; water): less than 5 micrograms per milliliter of water

Structure (SMILES): CC[C@@]1(O)C(=O)OCc2c1cc1n(c2=O)Cc2cc3ccccc3nc2-1 [Camptothecin, camptothecin]
- Stabilization of the topoisomerase I cleavable complex, reversibility [2]: readily reversible
- Renal excretion (human patients [3]; human, in vivo): excreted unchanged by the kidneys
- Clinical value in gastrointestinal cancer (conclusion) ([4]; in vivo): a drug of protean and unpredictable toxicity that has no clinical value in the management of gastrointestinal cancer
- Solubility, Concentration ([5]; N-Methyl-2-pyrrolidinone (NMP)): 15000 to 20000 µg/mL
- solubility ([5]; benzyl alcohol, organic solvent or mixture, Benzyl alcohol): 1670 µg/mL (≈ 4810 µM)
- solubility ([5]; dimethylacetamide, organic solvent or mixture, Dimethylacetamide): 5000 µg/mL (≈ 14400 µM)
- solubility ([5]; dimethylisosorbide, organic solvent or mixture, Dimethylisosorbide): 928 µg/mL (≈ 2660 µM)
- solubility ([5]; ethanol, organic solvent or mixture, Ethanol): 51 µg/mL (≈ 146 µM)
- solubility ([5]; milli-q water): 0.2 µg/mL (≈ 0.574 µM)
- solubility ([5]; n-methyl-2-pyrrolidinone (nmp), organic solvent or mixture, N-Methyl-2-pyrrolidinone (NMP)): > 15000 µg/mL
- solubility ([5]; peg 300, organic solvent or mixture, PEG 300): 706 µg/mL (≈ 2030 µM)
- solubility ([5]; propylene glycol, organic solvent or mixture, Propylene glycol): 281 µg/mL (≈ 807 µM)
- Protein-free DNA breaks (L1210 cells): an increase in unexplained protein-free breaks
- Inhibition of topoisomerase I (Topoisomerase I [6]): inhibited
- Effect on topoisomerase II (topoisomerase II): no effect on topoisomerase II
- Protein-associated DNA single-strand breaks (DNA strand breaks): induces protein-associated DNA single-strand breaks
- Protein linkage of DNA strand breaks (DNA strand breaks; in vitro cells): Virtually all of the DNA strand breaks observed in vitro cells treated with camptothecin are protein linked
- Toxicity in early trials [7]: unpredictable myelosuppression and hemorrhagic cystitis
- Water solubility ([1]; lactone form, pH of 2 to 6): less than 5 micrograms in one milliliter o
- Toxicity of lactone form relative to SCPT (mice): 10 fold
- Anti-tumor activity of lactone relative to carboxylate form [8]: greater than 10 fold
- Inhibition of topoisomerase I (Topoisomerase I [9]): inhibited
- Transport into bile [10]: extremely active transport of camptothecin into bile

Structure (SMILES): CN1CCCC1=O [NMP, N-methyl-2-pyrrolidinone]
- Chemical reactivity of NMP with HLCD [11]: inert with respect to undesirable chemical reactions with HLCD; also recorded: chemically inert with respect to poorly water soluble camptothecins

Structure (SMILES): CC[C@@](O)(C(=O)O)c1cc2n(c(=O)c1CO)Cc1cc3ccccc3nc1-2 [SCPT]
- Bladder toxicity, dose limiting (human patients [3]; 20 to 30 mg/m^2): dose limiting in three patients
- Bladder toxicity, additional patients (human patients [3]; 44 and 30 mg/m^2): two additional patients
- Leukopenia, incidence (human patients [3]; daily treatment, total dose of 100 mg/m^2): four of six patients
- Leukopenia, duration (human patients [3]; daily vs weekly treatment): more prolonged after daily treatment than after weekly treatment
- Leukopenia (human patients [3]; dose-limiting toxic effect): Reversible leukopenia was the major dose-limiting toxic effect
- Clinical benefit (human patients [3]; eight patients with measurable disease, 5-day courses at dose levels associated with toxicity): No clinical benefit was observed
- Clinical responses (human patients [3]; weekly courses, evaluable patients): two of ten patients
- No. of patients with Cystitis ([4]; 11 mg/m^2 × 5, 2 patients treated): 1 patients
- No. of patients with Cystitis [4, 15]: 4 patients
- No. of patients with Diarrhea [4, 15]: 1 patients
- No. of patients with Cystitis [4, 16]: 2 patients
- No. of patients with Diarrhea [4, 16]: 4 patients
- No. of patients with Cystitis [4, 17]: 6 patients
- No. of patients with Diarrhea [4, 17]: 4 patients
- No. of patients with Diarrhea ([4]; 22 mg/m^2 × 5, 1 patient treated): 1 patients
- Improvement at 3 months ([4]; 3 months, 61 patients): none showed improvement at 3 months
- Objective Responses: Improved [4, 18]: 1 patients
- Objective Responses: Stable [4, 18]: 12 patients
- Objective Responses: Worse [4, 18]: 14 patients
- Objective Responses: Stable [4, 19]: 7 patients
- Objective Responses: Worse [4, 19]: 20 patients
- Objective Responses: Stable [4, 20]: 6 patients
- Objective Responses: Worse [4, 20]: 21 patients
- Cystitis (% of 27 patients) ([4]; 5-Day course, P < 0.05): 48%
- Cystitis (% of 34 patients) ([4]; Single dose): 24%
- Partial objective improvement ([4]; after 2 months (8 or 9 weeks), 61 patients): only two of their 61 patients
- Patients with 25%-50% response ([4]; at 3 wks only): 3 patients
- Diarrhea, severity and persistence ([4]; higher doses): could be quite severe to the point of fecal incontinence and persistent for as long as 4 weeks
- Onset of cystitis after treatment ([4]; in vivo): 7 to 10 days
- Severity of toxicity by schedule ([4]; prolonged (5-day) vs single-dose schedule at a given total dose): more prolonged schedule produced more severe toxicity at a given total dose level
- No. of patients with Cystitis ([4]; single dose 90 mg/m^2, 10 patients treated): 1 patients
- No. of patients with Cystitis ([4]; single dose 100 mg/m^2, 6 patients treated): 2 patients
- No. of patients with Cystitis [4, 21]: 1 patients
- No. of patients with Diarrhea [4, 21]: 1 patients
- No. of patients with Cystitis [4, 22]: 2 patients
- No. of patients with Diarrhea [4, 22]: 4 patients
- No. of patients with Cystitis [4, 23]: 3 patients
- No. of patients with Diarrhea [4, 23]: 2 patients
- Objective Responses: Improved [4, 24]: 4 patients
- Objective Responses: Stable [4, 24]: 17 patients
- Objective Responses: Worse [4, 24]: 13 patients
- Objective Responses: Improved [4, 25]: 2 patients
- Objective Responses: Stable [4, 25]: 1i
- Objective Responses: Worse [4, 25]: 21 patients
- Objective Responses: Improved [4, 26]: 2 patients
- Objective Responses: Stable [4, 26]: 8 patients
- Objective Responses: Worse [4, 26]: 24 patients
- Objective Responses: Stable [4, 27]: 6 patients
- Objective Responses: Worse [4, 27]: 28 patients
- Antitumor activity in early trials [7]: lack of consistent antitumor activity
- Toxicity in early trials [7]: unpredictable and severe myelosuppression,gastrointestinal toxicity, hemorrhagic cystitis, and alopecia
- Plasma camptothecin levels, relation to dose ([12]; 24 hours after SCPT, once daily×5, 6.5-20 mg/m^2/day): plasma camptothecin levels have little relation to the dose given
- Severe toxic effects ([12]; patients with obvious renal disease excluded): Severe toxic effects including cystitis occurred
- Mean urine recovery of camptothecin, excluding patients with impaired urinary excretion (human patients [13]; 5 patients with impaired urinary excretion excluded, i.v., 2880 min): 22.8%
- Urinary appearance of unmetabolized camptothecin (human patients [13]; after i.v. drug administration): unmetabolized camptothecin in high concentrations rapidly appeared in the urine
- Mean urine recovery of camptothecin (human patients [13]; first 48 hours, i.v.): 17.4%
- Urine recovery of camptothecin (range) (human patients [13]; first 48 hours, i.v.): 3.6-38.9%
- Time course of urinary drug excretion (human patients [13]; i.v.): most of the drug excretion occurring in the initial 12 hours
- Sterile hemorrhagic cystitis (human patients [13]; moderately dehydrated patients): 3 patients
- 50% or greater decrease in tumor diameter (malignant melanoma; [28]): None of the patients had a 50% or greater decrease in tumor diameter
- Transient tumor regression (malignant melanoma; [28]): Less pronounced transient tumor regression was noted in three patients
- Disease in remaining patients (malignant melanoma; 90-360 mg/m^2 every 2 weeks): no change or progression in their disease
- Alopecia (malignant melanoma; fifteen patients): 8 patients
- Diarrhea (malignant melanoma; fifteen patients): 3 patients
- Hemorrhagic cystitis (malignant melanoma; fifteen patients): 1 patients
- Myelosuppression (malignant melanoma; fifteen patients): 11 patients
- Nausea and vomiting (malignant melanoma; fifteen patients): 9 patients

Structure (SMILES): COc1cc([C@@H]2c3cc4c(cc3[C@@H](O[C@@H]3O[C@@H]5CO[C@@H](C)O[C@H]5[C@H](O)[C@H]3O)[C@H]3COC(=O)[C@H]23)OCO4)cc(OC)c1O [etoposide]
- Bioavailability following oral administration [14]: substantially equivalent to that achieved by intravenous administration

— patent US5726181A, “Formulations and compositions of poorly water soluble camptothecin derivatives” (BioNumerik Pharmaceuticals, Inc., priority 1995, dated 1998)
